Results: patent publication US20250339399A1, “SUPRAMOLECULAR SELF-ASSEMBLY SYSTEM” (Beijing Creatron Institute of Pharmaceutical Research Co., …, priority 2022, published 2025)

Experiments:
[1] = Binary supramolecular self-assembly systems of polymer and target: guest concentration over incubation time (Comparative Example 2); type: physicochemical
Description: Experiments were conducted according to the steps in Comparative Example 1, and quantitative analysis was carried out using the analytical method for each target to investigate the regulation ability […] stacking.

[2] = cited from earlier work
[3] = binary system with 0.5% polymer 101, incubation 0.5 h
[4] = binary system with 0.5% polymer 101, incubation 3 h
[5] = binary system with 0.5% polymer 101, incubation 6 h
[6] = binary system with 0.5% polymer 102, incubation 0.5 h
[7] = binary system with 0.5% polymer 102, incubation 3 h
[8] = binary system with 0.5% polymer 102, incubation 6 h
[9] = binary system with 0.5% polymer 103, incubation 0.5 h
[10] = binary system with 0.5% polymer 103, incubation 3 h
[11] = binary system with 0.5% polymer 103, incubation 6 h
[12] = binary system with 0.5% polymer 106, incubation 0.5 h
[13] = binary system with 0.5% polymer 106, incubation 3 h
[14] = binary system with 0.5% polymer 106, incubation 6 h
[15] = binary system with 0.5% polymer 107, incubation 0.5 h
[16] = binary system with 0.5% polymer 107, incubation 3 h
[17] = binary system with 0.5% polymer 107, incubation 6 h

Row | Concentration of the target in the solution measured after different incubation time [1, 3] [ng/mL] | Concentration of the target in the solution measured after different incubation time [1, 4] [ng/mL] | Concentration of the target in the solution measured after different incubation time [1, 5] [ng/mL] | Concentration of the target in the solution measured after different incubation time [1, 6] [ng/mL] | Concentration of the target in the solution measured after different incubation time [1, 7] [ng/mL] | Concentration of the target in the solution measured after different incubation time [1, 8] [ng/mL] | Concentration of the target in the solution measured after different incubation time [1, 9] [ng/mL] | Concentration of the target in the solution measured after different incubation time [1, 10] [ng/mL] | Concentration of the target in the solution measured after different incubation time [1, 11] [ng/mL] | Concentration of the target in the solution measured after different incubation time [1, 12] [ng/mL] | Concentration of the target in the solution measured after different incubation time [1, 13] [ng/mL] | Concentration of the target in the solution measured after different incubation time [1, 14] [ng/mL] | Concentration of the target in the solution measured after different incubation time [1, 15] [ng/mL] | Concentration of the target in the solution measured after different incubation time [1, 16] [ng/mL] | Concentration of the target in the solution measured after different incubation time [1, 17] [ng/mL] | Concentration of the target in the solution measured after different incubation time ([1]; binary system with 0.5% polymer 110, incubation 0.5 h) [ng/mL] | Concentration of the target in the solution measured after different incubation time ([1]; binary system with 0.5% polymer 110, incubation 3 h) [ng/mL] | Concentration of the target in the solution measured after different incubation time ([1]; binary system with 0.5% polymer 110, incubation 6 h) [ng/mL] | SMILES | LogD7.4 or Log P [2]
1 | 415100 | 421500 | 361700 | 29100 | 28500 | 26100 | 69100 | 69600 | 64500 | 37000 | 39300 | 39500 | 57000 | 37800 | 36500 | 64700 | 69300 | 64400 | COC(=O)[C@H](c1ccccc1Cl)N1CCc2sccc2C1 [Clopidogrel, clopidogrel] | 4.11
2 | 13200 | 13500 | 9400 | 15300 | 12700 | 13400 | 7000 | 5200 | 4000 | 4100 | 3100 | 1800 | 3200 | 2400 | 1700 |  |  |  | O=C1[C@@H]2[C@H]3CC[C@H](C3)[C@@H]2C(=O)N1C[C@@H]1CCCC[C@H]1CN1CCN(c2nsc3ccccc23)CC1 [Lurasidone, lurasidone] | 3.43
